Measurements published in ChEMBL document CHEMBL1781873, “Synthesis and antibacterial property of pyrrolopyrano quinolinones and pyrroloquinolines” (2011).
Values after ≈ are worked out from the molar mass of the structure shown. Active and inactive are the calls of the source. The calls are words filed in the database; no cut-off is given here.

Columns and labels:
Escherichia coli [1] = assay: Antibacterial activity against Escherichia coli at 10 ug after 24 hrs by disc diffusion assay; format: functional; details: read-out: IZ
Salmonella typhi [2] = assay: Antibacterial activity against Salmonella typhi at 15 ug after 24 hrs by disc diffusion assay; format: functional, Salmonella enterica subsp. enterica serovar Typhi; details: Salmonella enterica, read-out: IZ
Escherichia coli [3] = assay: Antibacterial activity against Escherichia coli at 20 ug after 24 hrs by disc diffusion assay; format: functional; details: read-out: IZ
Bacillus subtilis [4] = assay: Antibacterial activity against Bacillus subtilis at 15 ug after 24 hrs by disc diffusion assay; format: functional; details: read-out: IZ
Klebsiella pneumoniae [5] = assay: Antibacterial activity against Klebsiella pneumoniae at 20 ug after 24 hrs by disc diffusion assay; format: functional; details: read-out: IZ
Salmonella typhi [6] = assay: Antibacterial activity against Salmonella typhi at 20 ug after 24 hrs by disc diffusion assay; format: functional, Salmonella enterica subsp. enterica serovar Typhi; details: Salmonella enterica, read-out: IZ
Escherichia coli [7] = assay: Inhibition of Escherichia coli DNA gyrase -mediated DNA relaxation using pBR322 DNA as substrate at […] after 1 hrs by agarose gel electrophoresis
Pseudomonas aeruginosa [8] = assay: Antibacterial activity against Pseudomonas aeruginosa at 5 ug after 24 hrs by disc diffusion assay; format: functional; details: read-out: IZ
Escherichia coli [9] = assay: Inhibition of Escherichia coli DNA gyrase assessed as inhibition of DNA supercoiling activity using pBR322 DNA as substrate at […] after 3 hrs by agarose gel electrophoresis
Salmonella typhi [10] = assay: Antibacterial activity against Salmonella typhi at 25 ug after 24 hrs by disc diffusion assay; format: functional, Salmonella enterica subsp. enterica serovar Typhi; details: Salmonella enterica, read-out: IZ
Pseudomonas aeruginosa [11] = assay: Antibacterial activity against Pseudomonas aeruginosa at 25 ug after 24 hrs by disc diffusion assay; format: functional; details: read-out: IZ
Salmonella typhi [12] = assay: Antibacterial activity against Salmonella typhi after 18 to 20 hrs by broth micro dilution assay; format: functional, Salmonella enterica subsp. enterica serovar Typhi; details: Salmonella enterica
Escherichia coli [13] = assay: Antibacterial activity against Escherichia coli after 18 to 20 hrs by broth micro dilution assay; format: functional
Klebsiella pneumoniae [14] = assay: Antibacterial activity against Klebsiella pneumoniae at 15 ug after 24 hrs by disc diffusion assay; format: functional; details: read-out: IZ
Salmonella typhi [15] = assay: Antibacterial activity against Salmonella typhi at 5 ug after 24 hrs by disc diffusion assay; format: functional, Salmonella enterica subsp. enterica serovar Typhi; details: Salmonella enterica, read-out: IZ
Pseudomonas aeruginosa [16] = assay: Antibacterial activity against Pseudomonas aeruginosa at 15 ug after 24 hrs by disc diffusion assay; format: functional; details: read-out: IZ
Staphylococcus aureus [17] = assay: Antibacterial activity against Staphylococcus aureus after 18 to 20 hrs by broth micro dilution assay; format: functional
Escherichia coli [18] = assay: Antibacterial activity against Escherichia coli at 15 ug after 24 hrs by disc diffusion assay; format: functional; details: read-out: IZ
Klebsiella pneumoniae [19] = assay: Antibacterial activity against Klebsiella pneumoniae at 5 ug after 24 hrs by disc diffusion assay; format: functional; details: read-out: IZ
Escherichia coli [20] = assay: Antibacterial activity against Escherichia coli at 5 ug after 24 hrs by disc diffusion assay; format: functional; details: read-out: IZ
Pseudomonas aeruginosa [21] = assay: Antibacterial activity against Pseudomonas aeruginosa at 20 ug after 24 hrs by disc diffusion assay; format: functional; details: read-out: IZ
Pseudomonas aeruginosa [22] = assay: Antibacterial activity against Pseudomonas aeruginosa after 18 to 20 hrs by broth micro dilution assay; format: functional
Escherichia coli [23] = assay: Inhibition of DNA gyrase mRNA expression in Escherichia coli measured up to 24 hrs by RT-PCR; format: functional, organism-based
Bacillus subtilis [24] = assay: Antibacterial activity against Bacillus subtilis after 18 to 20 hrs by broth micro dilution assay; format: functional
Bacillus subtilis [25] = assay: Antibacterial activity against Bacillus subtilis at 25 ug after 24 hrs by disc diffusion assay; format: functional; details: read-out: IZ
Staphylococcus aureus [26] = assay: Antibacterial activity against Staphylococcus aureus at 10 ug after 24 hrs by disc diffusion assay; format: functional; details: read-out: IZ
Salmonella typhi [27] = assay: Antibacterial activity against Salmonella typhi at 10 ug after 24 hrs by disc diffusion assay; format: functional, Salmonella enterica subsp. enterica serovar Typhi; details: Salmonella enterica, read-out: IZ
Staphylococcus aureus [28] = assay: Antibacterial activity against Staphylococcus aureus at 5 ug after 24 hrs by disc diffusion assay; format: functional; details: read-out: IZ
Klebsiella pneumoniae [29] = assay: Antibacterial activity against Klebsiella pneumoniae after 18 to 20 hrs by broth micro dilution assay; format: functional
Bacillus subtilis [30] = assay: Antibacterial activity against Bacillus subtilis at 10 ug after 24 hrs by disc diffusion assay; format: functional; details: read-out: IZ
Escherichia coli [31] = assay: Antibacterial activity against Escherichia coli at 25 ug after 24 hrs by disc diffusion assay; format: functional; details: read-out: IZ
Klebsiella pneumoniae [32] = assay: Antibacterial activity against Klebsiella pneumoniae at 25 ug after 24 hrs by disc diffusion assay; format: functional; details: read-out: IZ
Klebsiella pneumoniae [33] = assay: Antibacterial activity against Klebsiella pneumoniae at 10 ug after 24 hrs by disc diffusion assay; format: functional; details: read-out: IZ
Staphylococcus aureus [34] = assay: Antibacterial activity against Staphylococcus aureus at 20 ug after 24 hrs by disc diffusion assay; format: functional; details: read-out: IZ
Bacillus subtilis [35] = assay: Antibacterial activity against Bacillus subtilis at 20 ug after 24 hrs by disc diffusion assay; format: functional; details: read-out: IZ
Staphylococcus aureus [36] = assay: Antibacterial activity against Staphylococcus aureus at 15 ug after 24 hrs by disc diffusion assay; format: functional; details: read-out: IZ
Pseudomonas aeruginosa [37] = assay: Antibacterial activity against Pseudomonas aeruginosa at 10 ug after 24 hrs by disc diffusion assay; format: functional; details: read-out: IZ
Staphylococcus aureus [38] = assay: Antibacterial activity against Staphylococcus aureus at 25 ug after 24 hrs by disc diffusion assay; format: functional; details: read-out: IZ
Bacillus subtilis [39] = assay: Antibacterial activity against Bacillus subtilis at 5 ug after 24 hrs by disc diffusion assay; details: read-out: IZ

Molecule `CCC1[C@H]2c3c(n(C)c4ccccc4c3=O)OC(C)(C)[C@@H]2CN1OS(=O)(=O)c1ccc(C)cc1` (mixture of isomers) has a zone of inhibition at 10 µg/disc (Escherichia coli [1]) of 14 mm, a zone of inhibition at 15 µg/disc (Salmonella typhi [2]) of 18 mm and a zone of inhibition at 20 µg/disc (Escherichia coli [3]) of 22 mm. The zone of inhibition at 15 µg/disc (Bacillus subtilis [4]) was 9 mm, the zone of inhibition at 20 µg/disc (Klebsiella pneumoniae [5]) was 24 mm and the zone of inhibition at 20 µg/disc (Salmonella typhi [6]) was 22 mm. For the same molecule, the inhibition (Escherichia coli [7]) was “Active”, the zone of inhibition at 5 µg/disc (Pseudomonas aeruginosa [8]) was 24 mm and the “DNA gyrase inhibition (active/inactive)” value (Escherichia coli [9]) was “Active”. It also gave a zone of inhibition at 25 µg/disc (Salmonella typhi [10]) of 24 mm, a zone of inhibition at 25 µg/disc (Pseudomonas aeruginosa [11]) of 36 mm and an MIC50 (Salmonella typhi [12]) of 0.5 µg/mL. It also gave an MIC90 (Salmonella typhi [12]) of 0.5 µg/mL, an MIC50 (Escherichia coli [13]) of 0.5 µg/mL and an MIC90 (Escherichia coli [13]) of 0.5 µg/mL. It also gave a zone of inhibition at 15 µg/disc (Klebsiella pneumoniae [14]) of 16 mm, a zone of inhibition at 5 µg/disc (Salmonella typhi [15]) of 10 mm and a zone of inhibition at 15 µg/disc (Pseudomonas aeruginosa [16]) of 28 mm. It also gave an MIC50 (Staphylococcus aureus [17]) of 0.5 µg/mL, an MIC90 (Staphylococcus aureus [17]) of 0.5 µg/mL and a zone of inhibition at 15 µg/disc (Escherichia coli [18]) of 16 mm. For the same molecule, the zone of inhibition at 5 µg/disc (Klebsiella pneumoniae [19]) was 10 mm, the zone of inhibition at 5 µg/disc (Escherichia coli [20]) was 12 mm and the zone of inhibition at 20 µg/disc (Pseudomonas aeruginosa [21]) was 34 mm. For the same molecule, the MIC50 (Pseudomonas aeruginosa [22]) was 0.5 µg/mL, the MIC90 (Pseudomonas aeruginosa [22]) was 0.5 µg/mL and the “inhibition of gyrase mRNA expression (active/not active)” value (Escherichia coli [23]) was “inactive”. The MIC50 (Bacillus subtilis [24]) was 0.5 µg/mL, the MIC90 (Bacillus subtilis [24]) was 0.5 µg/mL and the zone of inhibition at 25 µg/disc (Bacillus subtilis [25]) was 11 mm. The zone of inhibition at 10 µg/disc (Staphylococcus aureus [26]) was 24 mm, the zone of inhibition at 10 µg/disc (Salmonella typhi [27]) was 16 mm and the zone of inhibition at 5 µg/disc (Staphylococcus aureus [28]) was 20 mm. It also gave an MIC50 (Klebsiella pneumoniae [29]) of 0.5 µg/mL, an MIC90 (Klebsiella pneumoniae [29]) of 0.5 µg/mL and a zone of inhibition at 10 µg/disc (Bacillus subtilis [30]) of 8 mm. For the same molecule, the zone of inhibition at 25 µg/disc (Escherichia coli [31]) was 23 mm, the zone of inhibition at 25 µg/disc (Klebsiella pneumoniae [32]) was 26 mm and the zone of inhibition at 10 µg/disc (Klebsiella pneumoniae [33]) was 14 mm. For the same molecule, the zone of inhibition at 20 µg/disc (Staphylococcus aureus [34]) was 30 mm, the zone of inhibition at 20 µg/disc (Bacillus subtilis [35]) was 10 mm and the zone of inhibition at 15 µg/disc (Staphylococcus aureus [36]) was 26 mm. The zone of inhibition at 10 µg/disc (Pseudomonas aeruginosa [37]) was 26 mm and the zone of inhibition at 25 µg/disc (Staphylococcus aureus [38]) was 36 mm.

`O=C(O)c1cn(C2CC2)c2cc(N3CCNCC3)c(F)cc2c1=O` [CIPROFLOXACIN] showed a zone of inhibition at 10 µg/disc (Escherichia coli [1]) of 16 mm, a zone of inhibition at 5 µg/disc (Bacillus subtilis [39]) of 6 mm and a zone of inhibition at 15 µg/disc (Salmonella typhi [2]) of 18 mm. The zone of inhibition at 15 µg/disc (Bacillus subtilis [4]) was 9 mm, the zone of inhibition at 20 µg/disc (Klebsiella pneumoniae [5]) was 34 mm and the zone of inhibition at 20 µg/disc (Salmonella typhi [6]) was 22 mm. For the same molecule, the inhibition (Escherichia coli [7]) was “Active”, the zone of inhibition at 5 µg/disc (Pseudomonas aeruginosa [8]) was 12 mm and the “DNA gyrase inhibition (active/inactive)” value (Escherichia coli [9]) was “Active”. For the same molecule, the zone of inhibition at 25 µg/disc (Salmonella typhi [10]) was 24 mm, the zone of inhibition at 25 µg/disc (Pseudomonas aeruginosa [11]) was 23 mm and the MIC50 (Salmonella typhi [12]) was 0.5 µg/mL (≈ 1.51 µM). The MIC90 (Salmonella typhi [12]) was 1 µg/mL (≈ 3.02 µM), the MIC90 (Escherichia coli [13]) was 1 µg/mL (≈ 3.02 µM) and the zone of inhibition at 15 µg/disc (Klebsiella pneumoniae [14]) was 30 mm. The zone of inhibition at 5 µg/disc (Salmonella typhi [15]) was 14 mm, the zone of inhibition at 15 µg/disc (Pseudomonas aeruginosa [16]) was 16 mm and the MIC50 (Staphylococcus aureus [17]) was 0.5 µg/mL (≈ 1.51 µM). It also gave an MIC90 (Staphylococcus aureus [17]) of 1 µg/mL (≈ 3.02 µM), a zone of inhibition at 15 µg/disc (Escherichia coli [18]) of 18 mm and a zone of inhibition at 5 µg/disc (Klebsiella pneumoniae [19]) of 24 mm. The zone of inhibition at 20 µg/disc (Pseudomonas aeruginosa [21]) was 20 mm, the MIC50 (Pseudomonas aeruginosa [22]) was 0.5 µg/mL (≈ 1.51 µM) and the MIC90 (Pseudomonas aeruginosa [22]) was 1 µg/mL (≈ 3.02 µM). For the same molecule, the MIC50 (Bacillus subtilis [24]) was 0.5 µg/mL (≈ 1.51 µM), the MIC90 (Bacillus subtilis [24]) was 1 µg/mL (≈ 3.02 µM) and the zone of inhibition at 25 µg/disc (Bacillus subtilis [25]) was 12 mm. The zone of inhibition at 10 µg/disc (Staphylococcus aureus [26]) was 24 mm, the zone of inhibition at 10 µg/disc (Salmonella typhi [27]) was 16 mm and the zone of inhibition at 5 µg/disc (Staphylococcus aureus [28]) was 22 mm. For the same molecule, the MIC50 (Klebsiella pneumoniae [29]) was 0.5 µg/mL (≈ 1.51 µM), the MIC90 (Klebsiella pneumoniae [29]) was 1 µg/mL (≈ 3.02 µM) and the zone of inhibition at 10 µg/disc (Bacillus subtilis [30]) was 7 mm. The zone of inhibition at 25 µg/disc (Klebsiella pneumoniae [32]) was 36 mm, the zone of inhibition at 10 µg/disc (Klebsiella pneumoniae [33]) was 26 mm and the zone of inhibition at 20 µg/disc (Staphylococcus aureus [34]) was 30 mm. For the same molecule, the zone of inhibition at 20 µg/disc (Bacillus subtilis [35]) was 10 mm, the zone of inhibition at 15 µg/disc (Staphylococcus aureus [36]) was 26 mm and the zone of inhibition at 10 µg/disc (Pseudomonas aeruginosa [37]) was 14 mm. It also gave a zone of inhibition at 25 µg/disc (Staphylococcus aureus [38]) of 36 mm.
